Viability data for 79 compounds are collected here from PMC12040169 (PLOS Biology, 2025).

The nature of the series: in vitro. Conditions: human, hela cells, % viability.

For orientation: viability means a read-out of living cells in per cent, often relative to untreated cells. On to `CN1C(=O)CC(NCc2ccc(S(N)(=O)=O)cc2)C1=O` (stereo not shown) [CBK262352], for which the viability at 28.5 h, 10 µM was 87.4%. Next, `CC(C)c1ccccc1OCC(=O)OCCN1C(=O)c2ccccc2C1=O` [CBK264841]: 92.2%. Next, `Cc1ccccc1N1C(=O)c2ccc(Br)cc2C1=O` [CBK022430]: 90.9%; `CC(C)(C)SCCNS(=O)(=O)c1ccc(Cl)c(Cl)c1` [CBK057015]: 92.1%. Take `Cc1c(-c2cncn2C(C)CN2CCOCC2)[nH]c2ccccc12` (stereo not shown) [CBK281795]: the viability at 28.5 h, 10 µM came to 99.9%. As for `N#CCCCN1CCC(Oc2nccnc2OCc2cccnc2)CC1` [CBK083171], the viability at 28.5 h, 10 µM is 85.9%. Under `O=C(NCCc1cccs1)Nc1ccc(Cl)c(C(F)(F)F)c1` [CBK043775] stands 97.6%; under `O=S(=O)(Nc1cc(-c2ccco2)n[nH]1)c1ccc(Br)cc1C(F)(F)F` [CBK067286], 96.2%; under `COc1ccc2[nH]c3c(c2c1)CCNC31CCN(Cc2cc(F)cc(F)c2)C1` (stereo not shown) [CBK039368], 81.9%.

In the case of `O=C(O)COc1ccccc1/C=N\N1CCN(c2ccccn2)CC1` [CBK262916], the viability at 28.5 h, 10 µM was found to be 95.9%.

In the case of `O=C(Nc1ccc2c(c1)CCO2)N1CCCC1c1nc(-c2ccccc2)c2ccccn12` (stereo not shown) [CBK046733], the viability at 28.5 h, 10 µM was determined as 117%. Next, `Cc1c(C(=O)O)sc(S(=O)(=O)N2CCN(C(=O)CCC3CCCC3)CC2)c1C(=O)O` [CBK297121]: 117%. As for `Brc1csc(CN2CCN3CCCC3C2C2CCCCC2)c1` (stereo not shown) [CBK026298], the viability at 28.5 h, 10 µM turned out to be 103%. For the compound `CC(=O)Nc1cccc(-n2nnnc2SC2CCCC2)c1` [CBK305996], the viability at 28.5 h, 10 µM came to 95.3%. Regarding `C/C(O)=C1/C(=O)N(c2nc3ccccc3s2)N=C1CC(=O)O` [CBK265828], the viability at 28.5 h, 10 µM was 90.5%. Under `COc1ccccc1C(CN)C1CCCCC1` (stereo not shown) [CBK009878] stands 99.7%. Under `O=C(c1ccc(F)cc1)N1CCC(O)(c2ccccn2)CC1` [CBK283669] stands 92.9%; under `N=C(N)SCCCCSC(=N)N` [CBK278304B], 102%.

For the compound `CC(=O)Nc1cccc(-c2cn3ccnc3c(N[C@@H](CO)C(C)C)n2)c1` [CBK036605], the viability at 28.5 h, 10 µM turned out to be 106%. Under `O=C(COc1ccc(S(=O)(=O)N2CCCCC2)cc1)NCc1cccnc1` [CBK268328] stands 97.6%; under `c1ccc(CN2CCN(c3ccc(Nc4cc(-c5ccncc5)ncn4)cc3)CC2)cc1` [CBK037727], 92.3%; under `Cc1cccc(-c2csc3c(=O)[nH]c(N4CCC(C(=O)NCCN5CCOCC5)CC4)nc23)c1` [CBK215640], 105%.

On to `O=C(Cn1c2ccccc2c2ccccc21)N1CCn2cnnc2C1` [CBK283724], for which the viability at 28.5 h, 10 µM came out at 88.2%. Next, `CCc1[nH]c2ccc(C(=O)NC3CCCOC3)cc2c1C` (stereo not shown) [CBK283247]: 95.9%; `O=C(Nc1ccccc1C(=O)N1CCN(Cc2ccccc2)CC1)c1ccccn1` [CBK263512]: 106%.

In the case of `CN1C(=O)CC2(C1=O)C(=O)N(CCN1C(=O)c3ccccc3C1=O)c1ccc(F)cc12` (stereo not shown) [CBK075451], the viability at 28.5 h, 10 µM turned out to be 89.5%.

Turning to `Cc1ccn2cc(-c3ccc4c(c3)CCN4S(C)(=O)=O)nc2c1` [CBK285221], the viability at 28.5 h, 10 µM came out at 88.3%. Under `O=C(O)c1ccc(CN2CCOC[C@H]2c2nc(-c3ccc(C(F)(F)F)cc3)c[nH]2)cc1` [CBK289317] stands 115%; under `COc1cccc2cc(C(=O)NCc3cccc4ccccc34)oc12` [CBK149800], 78.6%; under `CN(C)CCn1ccnc1C1CCCN(C(=O)Cc2cccc(Cl)c2)C1` (stereo not shown) [CBK307272], 92.3%. Next, `COc1ccc(-c2nc3c(n2O)CCc2c-3no[n+]2[O-])cc1OC` [CBK262350]: 80.3%. Next, `O=C(COC(=O)c1cc(-c2ccco2)nc2ccccc12)Nc1ccc(F)c(F)c1F` [CBK296115]: 84.6%; `OC(COc1ccccc1)CN1CCN(Cc2ccccc2)CC1` (stereo not shown) [CBK074852C]: 93%; `NCCSc1cc(C(F)(F)F)nc2ccccc12` [CBK017035]: 81.9%. As to `O=C1CCc2cc(S(=O)(=O)NC(c3ccccc3)c3ccccc3)cc3c2N1CCC3` [CBK294418], the viability at 28.5 h, 10 µM was 95.6%. Under `CCOC(=O)Cc1csc(SC(C)C(=O)N2CCCc3ccccc32)n1` (stereo not shown) [CBK304228] stands 98.9%; under `COc1ccc(CCCC(=O)NCc2ccc(OC3CCNCC3)cc2)cc1OC` [CBK028428T], 94.9%; under `COc1ccc(S(=O)(=O)Nc2sccc2C#N)cc1` [CBK034732], 110%. For the compound `COc1cc(-c2nc(-c3ccc(Cl)cc3)c(-c3ccccc3)[nH]2)c([N+](=O)[O-])cc1OC` [CBK264503], the viability at 28.5 h, 10 µM was found to be 98.9%. Next, `Cc1ccc(CNC(=O)c2ccc3c(c2)nc(N2CC[C@H](O)C2)n3C)s1` [CBK306837]: 90.9%. Take `Brc1ccc(C2(c3nnc(C4CC4)o3)CCOCC2)cc1` [CBK305498]: the viability at 28.5 h, 10 µM is 98.2%. With `Cn1c(=O)c2c(ncn2CC(=O)Nc2cccnc2)n(C)c1=O` [CBK133286], the viability at 28.5 h, 10 µM was 94.5%. Under `Nc1ncnc2c1nc(N)n2[C@H]1C[C@@H](O)[C@@H](CO)O1` [CBK201222] stands 101%; under `COc1ccc(CCNC(=O)N2CCN(c3cc(C(F)(F)F)ccn3)CC2)cc1OC` [CBK162330], 105%; under `CCn1cc(CN2CCCC(c3cc4cccnc4[nH]3)C2)c(C)n1` (stereo not shown) [CBK284701], 89.2%. Under `Cn1c(=O)c2c(ncn2CC(=O)Nc2ccc3ccccc3c2)n(C)c1=O` [CBK133722] stands 81.2%; under `Cc1ccc(-c2cnc(NC(=O)Cn3cccn3)n2C)cc1C` [CBK281727], 102%. Consider `CN(Cc1nc2c(s1)CCCC2)C(=O)c1ccc2[nH]cnc2c1` [CBK304138], for which the viability at 28.5 h, 10 µM worked out at 88.4%. Next, `Cc1noc(C)c1C(=O)N(C)CC(=O)Nc1ccc(Cl)c(C(F)(F)F)c1` [CBK295363]: 95.7%. `COc1ccc(-c2nc(NC(=O)Cc3ccc(N(C)C)cc3)cnc2-c2ccc(F)cc2)cn1` [CBK037582]: the viability at 28.5 h, 10 µM worked out at 97.9%. Under `Oc1cccc(-c2cn3ccnc3c(NCc3ccccn3)n2)c1` [CBK037535] stands 102%; under `CN(C(=O)Cn1cccc(C(=O)NCC(C)(C)c2ccc(F)cc2)c1=O)C1CCCCC1` [CBK286112], 108%; under `O=C(O)c1ccc(NC(=O)c2cn(-c3ccccc3)nc2-c2cc3ccccc3oc2=O)cc1` [CBK266432], 99.8%. For the compound `O=C(CSc1cnn[nH]1)Nc1ccccc1F` [CBK269903], the viability at 28.5 h, 10 µM was 101%. With `CCOc1ccsc1C(=O)N1CCc2ccccc21` [CBK200410], the viability at 28.5 h, 10 µM worked out at 100%. With `O=C(O)c1ccccc1-c1nc(-c2ccccc2F)no1` [CBK268022], the viability at 28.5 h, 10 µM is 100%.

Consider `O=C(CCc1ccc(-c2ccc(F)cc2)o1)Nc1ccc(C(=O)O)cc1` [CBK300502], for which the viability at 28.5 h, 10 µM amounted to 99%.

Turning to `Cc1nc(N2CCOCC2)nc(Nc2ccc(Cl)cc2)c1[N+](=O)[O-]` [CBK264685], the viability at 28.5 h, 10 µM is 87.5%.

On to `Cc1nc(C(C)NC(=O)c2cc(C3CC3)nc3c2c(C)nn3C)cs1` (stereo not shown) [CBK304779], for which the viability at 28.5 h, 10 µM is 93.7%.

Consider `O=C(O)c1cccc(NS(=O)(=O)c2ccc(S(=O)(=O)N3CCCCC3)cc2)c1` [CBK295295], for which the viability at 28.5 h, 10 µM came out at 101%.

In the case of `CN(C)CCNCCOc1cccc([N+](=O)[O-])c1` [CBK267803C], the viability at 28.5 h, 10 µM was determined as 99.7%. Under `O=C(NC1CC1)[C@H]1CN2CCC1C[C@@H]2Cn1cc(-c2cccc(O)c2)nn1` (stereo partly shown) [CBK288738] stands 79.8%; under `COC(=O)[C@H]1O[C@H](c2ccccc2)[C@@H]2C(=O)N(C)C(=O)[C@@H]21` [CBK009058], 87.6%; under `O=C(O)CCNC(=O)c1ccc(C#CC2(O)CCCCC2)cc1` [CBK286554], 93.2%. Under `COc1cc(-c2cncc(Nc3cccc(C(F)(F)F)c3)n2)cc(OC)c1OC` [CBK065213] stands 120%. On to `O=C(NCC(c1ccccc1)c1ccccc1)N1CCN(Cc2ccccc2)CC1` [CBK155651], for which the viability at 28.5 h, 10 µM stood at 83.9%.

As for `O=C(NCC1(N2CCOCC2)CCCCC1)c1ccccc1C(=O)c1ccc(F)cc1` [CBK297938], the viability at 28.5 h, 10 µM was 81%. Under `O=C(O)CNS(=O)(=O)c1ccc2nc(O)c(O)nc2c1` [CBK264334] stands 94.4%; under `CCOC(=O)CC1C(=O)NCCN1C/C=C/c1ccccc1` (stereo not shown) [CBK269922], 90.7%. Under `COc1ccnc(N2CCC(Oc3cccnc3N(C)C)C2)n1` (stereo not shown) [CBK304699] stands 92.4%; under `COc1ccccc1/C=C(/NC(=O)c1ccc(Cl)cc1Cl)C(=O)O` [CBK263998], 98.4%; under `O=C(O)CCCC(=O)Nc1cc(C(=O)O)ccc1Cl` [CBK267907], 116%. Under `CCc1c(C)nc2c(-c3ccc(OC)c(OC)c3)cnn2c1O` [CBK287962] stands 87%; under `CCCOC1CCCN(C(=O)c2cc(Cl)c[nH]2)C1` (stereo not shown) [CBK304802], 97.5%; under `CN(C)c1ccc(-c2cn3ccnc3c(NC3CC3)n2)cc1` [CBK037894], 103%. As to `COc1cc(F)ccc1-c1ccc(NS(C)(=O)=O)c2ccccc12` [CBK083744], the viability at 28.5 h, 10 µM was 97.9%. Take `COc1ccc(OC)c(N/C=C(/C#N)c2nc(-c3cc4c(ccc5ccccc54)oc3=O)cs2)c1` [CBK262991]: the viability at 28.5 h, 10 µM was 109%. Next, `CC(C)(C)OC(=O)Nc1ccc2c(ccn2CCN2CCOCC2)c1` [CBK161767]: 95%; `Cc1nn(CC(=O)N2CCCC(C)C2)c(=O)c2cc3sccc3n12` (stereo not shown) [CBK284046]: 87.7%.
